From US10487116B2, “Immunotherapy against several tumors, such as lung cancer, including NSCLC” (IMMATICS BIOTECHNOLOGIES GMBH, priority 2013, dated 2019)

Tests used:
CD8+ T cells = test: In vitro T-cell priming assay (aAPCs loaded with peptide/MHC and anti-CD28, pMHC multimer readout); format: cell-based, human; conditions: in vitro immunogenicity, trifluoro-acetate salts of the peptides; for Wells: positive wells; for Donors: responding healthy donors
Excerpt: In order to obtain information regarding the immunogenicity of the TUMAPs of the present invention, we performed investigations using an in vitro T-cell priming assay based on repeated stimulations of CD8+ T cells with artificial antigen presenting cells (aAPCs) loaded with peptide/MHC complexes and anti-CD28 antibody.
In order to perform in vitro stimulations by artificial antigen presenting cells loaded with peptide-MHC complex (pMHC) and anti-CD28 antibody, we first isolated CD8+ T cells from fresh HLA-A*02 leukapheresis products via positive selection using CD8 microbeads (Miltenyi Biotec, Bergisch-Gladbach, Germany) of healthy donors obtained from the Transfusion Medicine Tuebingen, Germany, after informed consent.
Isolated CD8+ lymphocytes or PBMCs were incubated until use in T-cell medium (TCM) consisting of RPMI-Glutamax (Invitrogen, Karlsruhe, Germany) supplemented with 10% heat inactivated human AB serum (PAN-Biotech, Aidenbach, Germany), 100 U/ml Penicillin/100 μg/ml Streptomycin (Cambrex, Cologne, Germany), 1 mM sodium pyruvate (CC Pro, Oberdorla, Germany), 20 μg/ml Gentamycin (Cambrex). 2.5 ng/ml IL-7 (PromoCell, Heidelberg, Germany) and 10 U/ml IL-2 (Novartis Pharma, Nurnberg, Germany) were also added to the TCM at this step.
Generation of pMHC/anti-CD28 coated beads, T-cell stimulations and readout was performed in a highly defined in vitro system using four different pMHC molecules per stimulation condition and 8 different pMHC molecules per readout condition.
All pMHC complexes used for aAPC loading and cytometric readout were derived from UV-induced MHC ligand exchange (Rodenko et al., 2006) with minor modifications. In order to determine the amount of pMHC monomer obtained by exchange we performed streptavidin-based sandwich ELISAs according to (Rodenko et al., 2006).
The purified co-stimulatory mouse IgG2a anti human CD28 Ab 9.3 (Jung et al., 1987) was chemically biotinylated using Sulfo-N-hydroxysuccinimidobiotin as recommended by the manufacturer (Perbio, Bonn, Germany). Beads used were 5.6 μm diameter streptavidin coated polystyrene particles (Bangs Laboratories, Ill., USA).
pMHC used for positive and negative control stimulations were A*0201/MLA-001 (peptide […] from modified Melan-A/MART-1) and A*0201/DDX5-001 ([…] from DDX5), respectively.
800.000 beads/200 μl were coated in 96-well plates in the presence of 4×12.5 ng different biotin-pMHC, washed and 600 ng biotin anti-CD28 were added subsequently in a volume of 200 μl. Stimulations were initiated in 96-well plates by co-incubating 1×10^6 CD8+ T cells with 2×10^5 washed coated beads in 200 μl TCM supplemented with 5 ng/ml IL-12 (PromoCell) for 3-4 days at 37° C. Half of the medium was then exchanged by fresh TCM supplemented with 80 U/ml IL-2 and incubating was continued for 3-4 days at 37° C. This stimulation cycle was performed for a total of three times. For the pMHC multimer readout using 8 different pMHC molecules per condition, a two-dimensional combinatorial coding approach was used as previously described (Andersen et al., 2012) with minor modifications encompassing coupling to 5 different fluorochromes. Finally, multimeric analyses were performed by staining the cells with Live/dead near IR dye (Invitrogen, Karlsruhe, Germany), CD8-FITC antibody clone SK1 (BD, Heidelberg, Germany) and fluorescent pMHC multimers. For analysis, a BD LSRII SORP cytometer equipped with appropriate lasers and filters was used. Peptide specific cells were calculated as percentage of total CD8+ cells. Evaluation of multimeric analysis was done using the FlowJo software (Tree Star, Oreg., USA). In vitro priming of specific multimer+CD8+ lymphocytes was detected by comparing to negative control stimulations.

HLA-A*0201 = HLA-A*0201 (Homo sapiens, UniProt P04439, D140Y/D185E/D98H/E176V/E277Q/G131W/G231S/I119V/I121R/I166T/I218V/L300P/L318F/N151K/N90K/P208A/P217A/Q86G/Q94H/R138H/R169H/T345S); test: UV-ligand exchange with ELISA of stabilized MHC complexes; format: binding; conditions: class symbol
Excerpt: Candidate peptides for the vaccines according to the present invention were further tested for immunogenicity by in vitro priming assays. The individual peptide-MHC complexes required for these assays were produced by UV-ligand exchange, where a UV-sensitive peptide is cleaved upon UV-irradiation, and exchanged with the peptide of interest as analyzed. Only peptide candidates that can effectively bind and stabilize the peptide-receptive MHC molecules prevent dissociation of the MHC complexes. To determine the yield of the exchange reaction, an ELISA was performed based on the detection of the light chain (β2m) of stabilized MHC complexes. The assay was performed as generally described in Rodenko et al. (Rodenko B, Toebes M, Hadrup S R, van Esch W J, Molenaar A M, Schumacher T N, Ovaa H. Generation of peptide-MHC class I complexes through UV-mediated ligand exchange. Nat Protoc. 2006; 1(3):1120-32.).
96 well MAXISorp plates (NUNC) were coated over night with 2 ug/ml streptavidin in PBS at room temperature, washed 4× and blocked for 30 min at 37° C. in 2% BSA containing blocking buffer. Refolded HLA-A*0201/MLA-001 monomers served as standards, covering the range of 8-500 ng/ml. Peptide-MHC monomers of the UV-exchange reaction were diluted 100 fold in blocking buffer. Samples were incubated for 1 h at 37° C., washed four times, incubated with 2 ug/ml HRP conjugated anti-β2m for 1 h at 37° C., washed again and detected with TMB solution that is stopped with […]. Absorption was measured at 450 nm.

Substance | Exchange yield (HLA-A*0201) | Wells (CD8+ T cells) | Donors (CD8+ T cells)
70 (KILEDVVGV; listed as Homo sapiens) [compound 70] |  | + (<20% = +) | +++ (50%-70%, +++)
71 (KLLEYIEEI; listed as Homo sapiens) [compound 71] |  | + (<20% = +) | +++ (50%-70%, +++)
72 (KLLTEVHAA; listed as Homo sapiens) [compound 72] |  | + (<20% = +) | +++ (50%-70%, +++)
73 (FLLDGSANV; listed as Homo sapiens) [compound 73] |  | + (<20% = +) | ++ (20%-49% = ++)
74 (SLLAQNTSWLL; listed as Homo sapiens) [compound 74] |  | + (<20% = +) | +++ (50%-70%, +++)
75 (ALYDSVILL; listed as Homo sapiens) [compound 75] |  | + (<20% = +) | ++ (20%-49% = ++)
78 (SLYDNQITTV; listed as Homo sapiens) [compound 78] |  | ++ (20%-49% = ++) | ++ (20%-49% = ++)
79 (SLAPAGVIRV; listed as Homo sapiens) [compound 79] |  | + (<20% = +) | ++++ (>70 = ++++)
80 (SLFGNSGILENV; listed as Homo sapiens) [compound 80] |  | + (<20% = +) | ++ (20%-49% = ++)
81 (ALYGRLEVV; listed as Homo sapiens) [compound 81] |  | + (<20% = +) | ++ (20%-49% = ++)
85 (KIVDFSYSV; listed as Homo sapiens) [compound 85] |  | ++ (20%-49% = ++) | ++++ (>70 = ++++)
86 (AMATESILHFA; listed as Homo sapiens) [compound 86] |  | + (<20% = +) | ++ (20%-49% = ++)
87 (RVLPPSALQSV; listed as Homo sapiens) [compound 87] |  | + (<20% = +) | +++ (50%-70%, +++)
88 (SLLESNKDLLL; listed as Homo sapiens) [compound 88] |  | + (<20% = +) | ++ (20%-49% = ++)
92 (HLLEDIAHV; listed as Homo sapiens) [compound 92] |  | + (<20% = +) | ++ (20%-49% = ++)

The next lines start with results.

Exchange yield (HLA-A*0201) | Substance | Wells (CD8+ T cells) | Donors (CD8+ T cells)
++ (20%-49% = ++) | AIDGNNHEV (listed as Homo sapiens) [SEQ ID NO 31] |  | 
++ (20%-49% = ++) | AILDTLYEV (listed as Homo sapiens) [SEQ ID NO 21] |  | 
+ (<20% = +) | AIMGFIGFFV (listed as Homo sapiens) [SEQ ID NO 45] |  | 
+++ (50%-70%, +++) | ALANQKLYSV (listed as Homo sapiens) [SEQ ID NO 83] |  | 
+++ (50%-70%, +++) | ALASVIKEL (listed as Homo sapiens) [SEQ ID NO 89] |  | 
++ (20%-49% = ++) | ALDENLHQL (listed as Homo sapiens) [SEQ ID NO 3] |  | 
+++ (50%-70%, +++) | ALFPHLLQPV (listed as Homo sapiens) [SEQ ID NO 43] |  | 
++++ (>70 = ++++) | ALLRTVVSV (listed as Homo sapiens) [SEQ ID NO 33] |  | 
++++ (>70 = ++++) | ALMDKEGLTAL (listed as Homo sapiens) [SEQ ID NO 9] |  | 
++ (20%-49% = ++) | ALVDHTPYL (listed as Homo sapiens) [SEQ ID NO 20] |  | 
+++ (50%-70%, +++) | ALWEKNTHL (listed as Homo sapiens) [SEQ ID NO 82] |  | 
++ (20%-49% = ++) | ALYDSVILL (listed as Homo sapiens) [SEQ ID NO 75] |  | 
++++ (>70 = ++++) | ALYGRLEVV (listed as Homo sapiens) [SEQ ID NO 81] |  | 
+++ (50%-70%, +++) | AMATESILHFA (listed as Homo sapiens) [SEQ ID NO 86] |  | 
+++ (50%-70%, +++) | AMFENFVSV (listed as Homo sapiens) [SEQ ID NO 91] |  | 
